Source: patent publication US20190336537A1, “GENERATING ATRIAL AND VENTRICULAR CARDIOMYOCYTE LINEAGES FROM HUMAN PLURIPOTENT STEM CELLS” (UNIVERSITY HEALTH NETWORK, priority 2016, published 2019)

Columns and labels:
[1] = test system: HES3 NKX2-5:GFP reporter hESC line derived cardiomyocytes; test: qRT-PCR analysis of atrial and ventricular gene expression in day 20 hPSC-derived cardiomyocytes; assay type: cell-based, human; conditions: receptor-specific agonist added in place of RA to day 3 cultures
[2] = test system: HES3 NKX2-5:GFP hESC-derived mesoderm; test: Specification of mesoderm populations to an atrial fate by ROH or RA (day 20 flow cytometry and qRT-PCR); assay type: cell-based, human; conditions: day 4, 5B/4A induced
[3] = test system: MSC-iPS1 induced pluripotent stem cell line derived EBs; test: ROH/RA response of MSC-iPS1-derived EBs (day 20 flow cytometry and qRT-PCR); assay type: cell-based, human; conditions: treated days 3 to 5
Source text: (§1) To determine if the approach for optimizing atrial and ventricular differentiation based on ALDH activity and CD235a expression is broadly applicable, we next used it to generate these cardiomyocyte populations from the HES2 human embryonic stem cell and the MSC-iPS1 induced pluripotent stem cell lines. Titration studies identified 5B/2A and 5B/6A as optimal for atrial and ventricular inductions, respectively, for HES2 cells and 4B/4A as optimal for ventricular induction for MSCiPSC1 cells (FIGS. 7A, 7B, 7E, and 7F; Mendeley http://dx.doi.org/10.17632/7z7d5v2c3w.1). Optimization of atrial induction from the MSC-iPSC1 cells was more challenging, as all cytokine combinations promoted the development of a substantial CD235a+ population. One interpretation of these patterns is that the MSC-iPS1 cells have a high level of endogenous Nodal/Activin A signaling, resulting in the development of some CD235a+ cells under all conditions. To test this, we added the Nodal/Activin A/transforming growth factor beta (TGF-beta) inhibitor SB-431542 (SB) from days 3 to 5 to cells induced with 4B/1A.
(§2) For cardiac differentiation, we used a modified version of our embryoid body (EB)-based protocol (Kattman et al., 2011). hPSC populations at 80%-90% confluence were dissociated into single cells (TrypLE, ThermoFisher) and re-aggregated to form EBs in StemPro-34 media (ThermoFisher) containing penicillin/streptomycin (1%, ThermoFisher), L-glutamine (2 mM, ThermoFisher), trans-ferrin (150 μg/ml, ROCHE), ascorbic acid (50 μg/ml, Sigma), and monothioglycerol (50 μg/ml, Sigma), ROCK inhibitor Y-27632 (10 μM, TOCRIS) and rhBMP4 (1 ng/ml, R&D) for 18 h on an orbital shaker. At day 1, the EBs were transferred to mesoderm induction media consisting of StemPro-34 with above supplements (-ROCK inhibitor Y-27632) and rhBMP4, rhActivinA (R&D) and rhbFGF (5 ng/ml, R&D) at the indicated concentrations. At day 3, the EBs were harvested, washed with IMDM and transferred to cardiac mesoderm specification media consisting of StemPro-34, the Wnt inhibitor IWP2 (1 μM, TOCRIS) and rhVEGF (10 ng/mL, R&D). At day 5, the EBs were transferred to Stem Pro-34 with rhVEGF (5 ng/ml) for another 7 days and then to Stem Pro-34 media without additional cytokines for further 8 days. At day 20, HES3-NKX2-5gfp/w-derived cardiomyocytes were analyzed and isolated based on the expression of NKX2-5:GFP and SIRPa and a lack of CD90. Cardiomyocytes generated from non-transgenic hPSC lines were analyzed and isolated as SIRPa+CD90− populations. Media was changed every 3 days. Cultures were incubated in a low oxygen environment (5% CO2, 5% O2, 90% N2) for first 12 days and a normoxic environment (5% CO2) for the following 8 days in total of 20 days. […]

[4] = test system: HES2 human embryonic stem cell derived EBs; test: ROH/RA response of HES2-derived EBs (day 20 flow cytometry and qRT-PCR); assay type: cell-based; conditions: treated days 3 to 5
Source text: as §1, §2

[5] = test system: HES3 NKX2-5:GFP hESC-derived mesoderm; test: Specification of mesoderm populations to an atrial fate by ROH or RA (day 20 flow cytometry and qRT-PCR); assay type: cell-based, human; conditions: for atrial specification (MLC2V+, IRX4, KCNJ3, NR2F2): treated days 3-5
Description: To determine if the ALDH^+ cells can synthesize RA, the ALDH^+PDGFRalpha^+ and ALDH^− PDGFRalpha^+ fractions were isolated from the day 4 3B/2A-induced population, and the cells were cultured as aggregates in retinol (ROH), RA, or DMSO (control) for 24 hr (FIGS. 3A and 3B). ALDH1A2 expression segregated to the ALDH^+ fraction, confirming the validity of aldefluor-based sorting strategy for isolating RALDH2-expressing cells (FIG. 3C).
(§3) For cardiac differentiation, we used a modified version of our embryoid body (EB)-based protocol (Kattman et al., 2011). hPSC populations at 80%-90% confluence were dissociated into single cells (TrypLE, ThermoFisher) and re-aggregated to form EBs in StemPro-34 media (ThermoFisher) containing penicillin/streptomycin (1%, ThermoFisher), L-glutamine (2 mM, ThermoFisher), trans-ferrin (150 μg/ml, ROCHE), ascorbic acid (50 μg/ml, Sigma), and monothioglycerol (50 μg/ml, Sigma), ROCK inhibitor Y-27632 (10 μM, TOCRIS) and rhBMP4 (1 ng/ml, R&D) for 18 h on an orbital shaker. At day 1, the EBs were transferred to mesoderm induction media consisting of StemPro-34 with above supplements (-ROCK inhibitor Y-27632) and rhBMP4, rhActivinA (R&D) and rhbFGF (5 ng/ml, R&D) at the indicated concentrations. At day 3, the EBs were harvested, washed with IMDM and transferred to cardiac mesoderm specification media consisting of StemPro-34, the Wnt inhibitor IWP2 (1 μM, TOCRIS) and rhVEGF (10 ng/mL, R&D). At day 5, the EBs were transferred to Stem Pro-34 with rhVEGF (5 ng/ml) for another 7 days and then to Stem Pro-34 media without additional cytokines for further 8 days. At day 20, HES3-NKX2-5gfp/w-derived cardiomyocytes were analyzed and isolated based on the expression of NKX2-5:GFP and SIRPa and a lack of CD90. Cardiomyocytes generated from non-transgenic hPSC lines were analyzed and isolated as SIRPa+CD90− populations. Media was changed every 3 days. Cultures were incubated in a low oxygen environment (5% CO2, 5% O2, 90% N2) for first 12 days and a normoxic environment (5% CO2) for the following 8 days in total of 20 days. The EBs were cultured in ultra-low attachment 6-well dishes (Corning) throughout the differentiation for maintaining suspension cultures.
Following optimization, either ATRA (0.5 μM, Sigma) or retinol (2 μM, Sigma) was included in the cardiac mesoderm specification media from days 3-5 for the generation of atrial cardiomyocytes.
(§4) Day 2-6 EBs were dissociated with TrypLE for 2-4 min at room temperature (RT). Day 20 EBs were dissociated by incubation in Collagenase type 2 (0.5 mg/ml, Worthington) in HANKs buffer overnight at RT followed by TrypLE treatment as described above. The following antibodies were used for staining: anti-PDGFRa-PE (R&D Systems, 3:50), anti-CD235a-APC (BD PharMingen, 1:100), antiSIRPa-PeCy7 (Biolegend, 1:1000), anti-CD90-APC (BD PharMingen, 1:1000), anticardiac isoform of CTNT (ThermoFisher Scientific, 1:2000), or anti-myosin light chain 2 (Abcam, 1:1000). For unconjugated primary antibodies, the following secondary antibodies were used for detection: goat anti-mouse IgG-APC (BD Pharmigen, 1:250), or donkey anti-rabbit IgG-PE (Jackson ImmunoResearch, 1:250). Detailed antibody information is described in Table 2.
The Aldefluor™ assay (STEMCELL Technologies) was performed according to the instruction provided by the manufacturer. Briefly, day 2-6 EBs were dissociated as described above. […] Stained cells were analyzed as described above. […]

[6] = test system: MSC-iPS1 induced pluripotent stem cell line derived EBs; test: Flow cytometry of ALDH activity and CD235a in MSC-iPS1-derived EBs treated with SB-431542; assay type: cell-based, human; conditions: SB days 3 to 5, cells induced with 4B/1A
Source text: as §1, §4
The Aldefluor™ assay (STEMCELL Technologies) was performed according to the instruction provided by the manufacturer. […] Stained cells were analyzed as described above. […]

[7] = test system: HES3 NKX2-5:GFP hESC-derived day 20 EB populations; test: Flow cytometric and immunostaining analyses of day 20 EB populations (CTNT, MLC2V, NKX2-5, COUPTFII); assay type: cell-based, human
Description: as §3, §4
For cell-surface marker analyses, cells were stained for 30 min at 4 degrees C. in FACS buffer consisting of PBS with 5% fetal calf serum (FCS) (Wisent) and 0.02% sodium azide. For intracellular staining, cells were fixed for 15 min at 4 degrees C. with 4% PFA in PBS followed by permeabilization using 90% methanol for 20 min at 4 degrees C. Cells were washed with PBS containing 0.5% BSA (Sigma) and stained with unconjugated primary antibodies in FACS buffer overnight at 4 degrees C. Stained cells were washed with PBS with 0.5% BSA and stained with secondary antibodies in FACS buffer for 1 h at 4 degrees C.
Stained cells were analyzed using the LSR II Flow cytometer (BD). For cell sorting, stained cells were kept in IMDM with 0.5% FCS and sorted using Influx (BD), FACSAriall (BD), MoFlo-XDP (BD) and FACSAria Fusion (BD) at the Sickids/UHN flow cytometry facility. Data were analyzed using FlowJo software (Tree Star).
Day 20 EBs were dissociated as described above and the cells plated onto 12 mm cover glasses (VWR) pre-coated with matrigel (25% v/v, BD). Cells were cultured for 3-5 days to enable the formation of adherent cell monolayers. Cells were fixed with
4% PFA in PBS for 10 min at room temperature and permeabilized with PBS containing 0.3% TritonX, 200 mM Glycine (Sigma) for 20 min at RT. Cells were blocked with PBS containing 10% FCS, 0.1% TritonX, and 2% BSA. […]

[8] = test system: hPSC-derived day 2-6 EB mesoderm; test: Aldefluor assay and flow cytometry of mesoderm (ALDH activity, PDGFRalpha, CD235a); assay type: cell-based, human
Description: as §4
The Aldefluor™ assay (STEMCELL Technologies) was performed according to the instruction provided by the manufacturer. Briefly, day 2-6 EBs were dissociated as described above. Cells were stained at a concentration of 2×10^6 cells/ml in the aldefluor assay buffer containing 0.1% BSA and BAAA substrate (0.12 mg/ml) for 60 min at 37 degrees C. The aldehyde dehydrogenase inhibitor DEAB ([…]) was added to the negative control sample. Cells were washed with cold media consisting of IMDM with 5% FCS and 10% aldefluor assay buffer. Cells were then stained with antibodies to cell surface markers at the concentrations indicated above in cold wash media for additional 20 min at 4 degrees C. Stained cells were analyzed as described above. During analyses, the cells were kept in cold wash media. For cell sorting, FCS was replaced with KnockOut™ serum replacement (ThermoFisher) to avoid any impact of serum-contained cy-tokines on the cell differentiations. Cells were maintained in StemPro-34 containing 10% aldefluor assay buffer throughout the sorting procedure. The sorted cells were collected and re-aggregated in StemPro-34 containing ROCK inhibitor (10 μM), IWP2 (0.5 μM) and rhVEGF (5 ng/ml).

[9] = reducing BMP4 from 10 to 3 ng/mL, Activin A 2 ng/mL
[10] = increasing Activin A from 2 to 12 ng/ml, BMP4 10 ng/mL
[11] = reducing Activin A, constant BMP4 (10 ng/mL)

CCCCCCCCc1ccc(-c2ccc(C(=O)O)cc2)cc1 [AC55649]
MYL2 expression in day 20 CTNT+ populations [1]: reduction

CC1(C)CCC(C)(C)c2cc(C(=O)Nc3ccc(C(=O)O)cc3)ccc21 [AM580]
MYL2 expression in day 20 CTNT+ populations [1]: reduction

O=C(O)c1ccc2cc(-c3ccc(O)c(C45CC6CC(CC(C6)C4)C5)c3)ccc2c1 [CD437]
MYL2 expression in day 20 CTNT+ populations [1]: reduction

CC1=C(/C=C/C(C)=C/C=C/C(C)=C/CO)C(C)(C)CCC1 [ROH, retinol]
atrial specification (MLC2V+, IRX4, NPPA, KCNJ3, NR2F2) ([2]; CD235a+ALDH− fraction): no response
atrial specification (MLC2V+, IRX4, NPPA, KCNJ3, NR2F2) ([2]; CD235a−ALDH+ fraction): gave rise to an atrial-like cardio-myocyte population
response of ALDH+ mesoderm (atrial expression profile) ([3]; MSC-iPS1, 4B/1A+SB induced): responded to both ROH and RA
response of CD235a+ mesoderm (MLC2V content, MYL2, IRX4, KCNJ3, NR2F2) ([3]; MSC-iPS1, 4B/4A induced): Neither CD235a+ mesoderm population responded
response of ALDH+ mesoderm (atrial expression profile) ([4]; HES2, 5B/2A induced): responded to both ROH and RA
response of CD235a+ mesoderm (MLC2V content, MYL2, IRX4, KCNJ3, NR2F2) ([4]; HES2, 5B/6A induced): Neither CD235a+ mesoderm population responded
atrial specification (MLC2V+, IRX4, KCNJ3, NR2F2) ([5]; 3B/2A-induced EBs): responded to ROH and generated an atrial-like cardiomyocyte population
atrial specification (MLC2V+, IRX4, KCNJ3, NR2F2) ([5]; 5B/12A-induced EBs): did not respond
atrial specification (MLC2V+ frequency, IRX4, KCNJ3) ([5]; ALDH+PDGFRalpha+ fraction, day 4, 3B/2A induced, 24 hr treatment): generated an atrial-like cardiomyocyte population

NC(=O)c1ccc(-c2nc(-c3ccc4c(c3)OCO4)c(-c3ccccn3)[nH]2)cc1 [SB-431542]
CD235a+ cells [6]: reduction
CTNT+MLC2V− cardiogenic potential of the mesoderm [6]: without affecting
size of the ALDH+ population [6]: increase in the size

B1: BMP4: Bone Morphogenetic Protein 4, recombinant human (R&D) (protein, UniProt P12644 293-408, looked up)
Bone morphogenetic protein 4: SPKHHSQRARKKNKNCRRHSLYVDFSDVGWNDWIVAPPGYQAFYCHGDCPFPLADHLNSTNHAIVQTLVNSVNSSIPKACCVPTELSAISMLYLDEYDKVVLKNYQEMVVEGCGCR
frequency of MLC2V+CTNT+ cells at day 20 ([7]; BMP4 20 ng/mL, Activin A 12 ng/mL): lowest frequency
frequency of CTNT+ cells at day 20 [7, 9]: increase the frequency
size of the CD235a+ population ([8]; BMP4 3-20 ng/mL, Activin A 12 ng/mL): little impact
size of the ALDH+PDGFRalpha+ population [8, 9]: did not influence

B2: Activin A: Recombinant human ActivinA (R&D), activates nodal signal transduction (protein, UniProt P08476 311-426, looked up)
Inhibin beta A chain: GLECDGKVNICCKKQFFVSFKDIGWNDWIIAPSGYHANYCEGECPSHIAGTSGSSLSFHSTVINHYRMRGHSPFANLKSCCVPTKLRPMSMLYYDDGQNIIKKDIQNMIVEECGCS
modifications: Inhibin beta A chain
proportion of MLC2V+CTNT+ cells [7, 10]: increase in the proportion
proportion of CTNT+ cardiomyocytes generated [7, 11]: decrease
ALDH+ population [8, 10]: elimination
size of the day 4 CD235a+ population [8, 10]: increase in the size
size of the ALDH+PDGFRalpha+ population at day 4 [8, 11]: substantial increase
